From article PMC7084598, “Design, Synthesis, and Biological Evaluation of Two Series of Novel A-Ring Fused Steroidal Pyrazines as Potential Anticancer Agents” (International Journal of Molecular Sciences, 2020)

Columns and labels:
[1] = system: PC-3 (prostate carcinoma); test: CCK-8 antiproliferative assay, PC-3; assay type: cell-based, human; conditions: for inhibition at 20 µM / IC50: Homo sapiens; for inhibition at 20 µM: 48 h, CCK8, mean of three independent experiments, NA = no activity, read-out: Inhibitory Ratio (Mean% ± SD%) PC-3; for IC50: CCK-8, 48 h, triplicate; for SI: Selectivity index = (IC50 of THLE-2)/(IC50 of PC-3): THLE-2 vs PC-3
Protocol: (§1) All the thirty-six target derivatives (5a–5f, 10a–10o, and 12a–12o) were screened for antiproliferative activities against three human cancer cell lines (MCF-7, PC-3, and HepG2) and cytotoxicity on a normal human cell (THLE-2) at the concentration of 20 μM by using the CCK8 assay.
(§2) Thirty-six novel steroidal A-ring fused pyrazine hybrids were evaluated by Cell Counting Kit-8 (CCK-8) assays, to evaluate their in vitro antiproliferative activities on three human cancer cell lines and one normal cell line: MCF-7 (breast carcinoma), PC-3 (prostate carcinoma), HepG2 (liver hepatocellular carcinoma), and THLE-2 ([…]), with 5-fluorouracil as the positive control.
(§3) Cells (3 × 10^3 cells per well) seeded into 96-well plates (Costar, Shanghai, China) were incubated with Ham’s F-12K containing various concentrations of steroidal pyrazines (5a–5f, 10a–10o, and 12a–12o) for 48 h at 37 °C and 5% COThen, 10 μL of CCK-8 reagent (Beyotime, Shanghai, China) dissolved in PBS (Phosphate buffered saline) was added per well, and continuously incubated at 37 °C for 1 h. Finally, the absorbance of samples taken from each well was measured on a microplate reader at 450 nm. The antiproliferative activities were expressed as inhibitory activity and IC50 values calculated using GraphPad Software 5.0 (GraphPad Software, San Diego, CA, USA), which were the mean values of three independent tests and are shown in Table 1 and Table 2, respectively. The formula used for cell inhibitory rates was (1 - sample absorption/vehicle absorption) × 100%.

MCF-7 (breast carcinoma) = test: CCK-8 antiproliferative assay, MCF-7; assay type: cell-based; conditions: Homo sapiens, MCF7, 48 h, CCK8, mean of three independent experiments, NA = no activity, read-out: Inhibitory Ratio (Mean% ± SD%) MCF-7
Protocol: as §1, §2, §3

[2] = system: THLE-2 (normal human cells); test: CCK-8 cytotoxicity on normal cells, THLE-2; assay type: cell-based; conditions: for inhibition at 20 µM: 48 h, CCK8, NA = no activity, read-out: Inhibitory Ratio (Mean% ± SD%) THLE-2; for IC50: CCK-8, 48 h
Protocol: as §1, §2, §3

[3] = system: HepG2 (liver hepatocellular carcinoma); test: CCK-8 antiproliferative assay, HepG2; assay type: cell-based; conditions: Homo sapiens, 48 h, CCK8, mean of three independent experiments, NA = no activity, read-out: Inhibitory Ratio (Mean% ± SD%) HepG2
Protocol: as §1, §2, §3

SMILES | inhibition at 20 µM [1] [%] | IC50 [1] [µM] | SI: Selectivity index = (IC50 of THLE-2)/(IC50 of PC-3) [1] | inhibition at 20 µM (MCF-7 (breast carcinoma)) [%] | inhibition at 20 µM [2] [%] | IC50 [2] [µM] | inhibition at 20 µM [3] [%]
O=c1[nH]cc(F)c(=O)[nH]1 [Compound 5-FU, 5-fluorouracil, reference compound] | 35 ± 1.46 | 22.4 ± 0.41 | 0.58 | 47.9 ± 1.67 | 51.8 ± 0.69 | 12.9 | 47.7 ± 1.3
CC1(C)C2=CCC3C(CC[C@@]4(C)C3CC[C@@H]4C(=O)O)[C@@]2(C)Cc2nc3ccccc3nc21 (stereo partly drawn) [Compound 5b] | 12.5 ± 12.9 | – | – | – | 12.6 ± 1.22 | – | 7.24 ± 5.83
CC1(C)C2=CCC3C(CC[C@@]4(C)C3CC[C@@H]4C(=O)O)[C@@]2(C)Cc2nc3cc(Br)ccc3nc21 (stereo partly drawn) [Compound 5c] | 20.7 ± 12.5 | – | – | 6.86 ± 7.46 | 12.5 ± 0.9 | – | –
CC1(C)C2=CCC3C(CC[C@@]4(C)C3CC[C@@H]4C(=O)O)[C@@]2(C)Cc2nc3ccc(Br)cc3nc21 (stereo partly drawn) [Compound 5d] | 30 to 60 | – | – | 12.4 ± 0.3 | 2.39 ± 0.65 | – | –
CC1(C)C2=CCC3C(CC[C@@]4(C)C3CC[C@@H]4C(=O)O)[C@@]2(C)Cc2nc3cc(O)ccc3nc21 (stereo partly drawn) [Compound 5e] | – | – | – | 6.57 ± 0.09 | – | – | –
CC1(C)C2=CCC3C(CC[C@@]4(C)C3CC[C@@H]4C(=O)O)[C@@]2(C)Cc2nc3ccc(O)cc3nc21 (stereo partly drawn) [Compound 5f] | – | – | – | 18.4 ± 13.1 | – | – | 24.9 ± 2.3
CC(O)C1CCC2C3CC=C4C(C)(C)c5nc6ccccc6nc5CC4(C)C3CCC12C (stereo not drawn) [Compound 10b] | 12.5 ± 12.9 | – | – | 9.95 ± 0.55 | 4.35 ± 2.27 | – | 7.24 ± 5.83
CC(O)C1CCC2C3CC=C4C(C)(C)c5nc6ccc(F)cc6nc5CC4(C)C3CCC12C (stereo not drawn) [Compound 10c] | 24.9 ± 2.12 | – | – | 3.85 ± 1.97 | – | – | –
CC(O)C1CCC2C3CC=C4C(C)(C)c5nc6cc(F)ccc6nc5CC4(C)C3CCC12C (stereo not drawn) [Compound 10d] | 52.8 ± 0.86 | – | – | 21.2 ± 9.12 | – | – | 22.4 ± 4.89
CC(O)C1CCC2C3CC=C4C(C)(C)c5nc6ccc(Cl)cc6nc5CC4(C)C3CCC12C (stereo not drawn) [Compound 10e] | 44.8 ± 3.26 | – | – | – | – | – | 25.6 ± 2.51
CC(O)C1CCC2C3CC=C4C(C)(C)c5nc6cc(Cl)ccc6nc5CC4(C)C3CCC12C (stereo not drawn) [Compound 10f] | 59.6 ± 1.29 | – | – | 23.9 ± 1.87 | – | – | 32.6 ± 0.41
CC(O)C1CCC2C3CC=C4C(C)(C)c5nc6ccc(Br)cc6nc5CC4(C)C3CCC12C (stereo not drawn) [Compound 10g] | – | – | – | – | – | – | 11.7 ± 2.56
CC(O)C1CCC2C3CC=C4C(C)(C)c5nc6cc(Br)ccc6nc5CC4(C)C3CCC12C (stereo not drawn) [Compound 10h] | 21.7 ± 1.27 | – | – | 21.2 ± 3.73 | 2.39 ± 0.07 | – | 13.1 ± 0.68
CC(O)C1CCC2C3CC=C4C(C)(C)c5nc6ccc(O)cc6nc5CC4(C)C3CCC12C (stereo not drawn) [Compound 10i] | 14.2 ± 0.87 | – | – | 17.9 ± 6.61 | – | – | –
CC(O)C1CCC2C3CC=C4C(C)(C)c5nc6cc(O)ccc6nc5CC4(C)C3CCC12C (stereo not drawn) [Compound 10j] | 30 to 60 | – | – | 18.6 ± 0.92 | – | – | –
COc1ccc2nc3c(nc2c1)CC1(C)C(=CCC2C1CCC1(C)C(C(C)O)CCC21)C3(C)C (stereo not drawn) [Compound 10k] | – | – | – | 11.2 ± 0.49 | 3.54 ± 2.16 | – | 29.3 ± 5.38
COc1ccc2nc3c(nc2c1)C(C)(C)C1=CCC2C(CCC4(C)C(C(C)O)CCC24)C1(C)C3 (stereo not drawn) [Compound 10l] | 30 to 60 | – | – | 41.6 ± 1.28 | 22.2 ± 2.72 | – | 33.3 ± 1.13

SMILES | inhibition at 20 µM [1] [%] | IC50 [1] [µM] | SI: Selectivity index = (IC50 of THLE-2)/(IC50 of PC-3) [1] | inhibition at 20 µM (MCF-7 (breast carcinoma)) [%] | inhibition at 20 µM [2] [%] | IC50 [2] [µM] | inhibition at 20 µM [3] [%]
CC(O)C1CCC2C3CC=C4C(C)(C)c5nc6ccc([N+](=O)[O-])cc6nc5CC4(C)C3CCC12C (stereo not drawn) [Compound 10m] | 16 ± 0.57 | – | – | 14.7 ± 0.25 | – | – | 18.2 ± 7.46
CC(O)C1CCC2C3CC=C4C(C)(C)c5nc6cc([N+](=O)[O-])ccc6nc5CC4(C)C3CCC12C (stereo not drawn) [Compound 10n] | 16.6 ± 3.72 | – | – | 20 ± 2.56 | – | – | 18.7 ± 2.69
CC(O)C1CCC2C3CC=C4C(C)(C)c5nc(C(=O)Nc6ccccc6)cnc5CC4(C)C3CCC12C (stereo not drawn) [Compound 12a] | 24.2 ± 0.94 | – | – | – | – | – | 12.5 ± 12.9
Cc1ccccc1NC(=O)c1cnc2c(n1)C(C)(C)C1=CCC3C(CCC4(C)C(C(C)O)CCC34)C1(C)C2 (stereo not drawn) [Compound 12b] | 20.8 ± 7.04 | – | – | 8.12 ± 3.17 | 5.15 ± 1.79 | – | 15.2 ± 5.61
Cc1cccc(NC(=O)c2cnc3c(n2)C(C)(C)C2=CCC4C(CCC5(C)C(C(C)O)CCC45)C2(C)C3)c1 (stereo not drawn) [Compound 12c] | 19.9 ± 0.43 | – | – | 3.57 ± 1.69 | – | – | 7.02 ± 3.1
Cc1ccc(NC(=O)c2cnc3c(n2)C(C)(C)C2=CCC4C(CCC5(C)C(C(C)O)CCC45)C2(C)C3)cc1 (stereo not drawn) [Compound 12d] | 22.6 ± 2.25 | – | – | 25 ± 3.43 | 18.2 ± 6.76 | – | 16.3 ± 3.72
CC(O)C1CCC2C3CC=C4C(C)(C)c5nc(C(=O)Nc6ccccc6F)cnc5CC4(C)C3CCC12C (stereo not drawn) [Compound 12e] | 47 ± 3.47 | – | – | 3.28 ± 1.9 | 14 ± 1.47 | – | 17.6 ± 3.19
CC(O)C1CCC2C3CC=C4C(C)(C)c5nc(C(=O)Nc6cccc(F)c6)cnc5CC4(C)C3CCC12C (stereo not drawn) [Compound 12f] | 33.2 ± 4.68 | – | – | 0.8 ± 3.31 | – | – | 12.8 ± 4.26
CC(O)C1CCC2C3CC=C4C(C)(C)c5nc(C(=O)Nc6ccc(F)cc6)cnc5CC4(C)C3CCC12C (stereo not drawn) [Compound 12g] | > 60 | 6.88 ± 0.04 | 2.14 | 33.4 ± 5.35 | 17.6 ± 1.39 | 14.7 | –
CC(O)C1CCC2C3CC=C4C(C)(C)c5nc(C(=O)Nc6ccccc6Cl)cnc5CC4(C)C3CCC12C (stereo not drawn) [Compound 12h] | 41.7 ± 4.79 | – | – | – | – | – | 21.9 ± 2.05
CC(O)C1CCC2C3CC=C4C(C)(C)c5nc(C(=O)Nc6cccc(Cl)c6)cnc5CC4(C)C3CCC12C (stereo not drawn) [Compound 12i] | 35.9 ± 2.97 | – | – | 20.2 ± 0.52 | – | – | 15.9 ± 2.93
CC(O)C1CCC2C3CC=C4C(C)(C)c5nc(C(=O)Nc6ccc(Cl)cc6)cnc5CC4(C)C3CCC12C (stereo not drawn) [Compound 12j] | 51.1 ± 1.02 | – | – | 24.9 ± 4.84 | – | – | 23.1 ± 1.27
COc1ccccc1NC(=O)c1cnc2c(n1)C(C)(C)C1=CCC3C(CCC4(C)C(C(C)O)CCC34)C1(C)C2 (stereo not drawn) [Compound 12k] | 32.9 ± 1.19 | – | – | 17.7 ± 1.01 | 4.71 ± 1.25 | – | 12.9 ± 0.43
COc1cccc(NC(=O)c2cnc3c(n2)C(C)(C)C2=CCC4C(CCC5(C)C(C(C)O)CCC45)C2(C)C3)c1 (stereo not drawn) [Compound 12l] | 26.9 ± 1.71 | – | – | 13.8 ± 2.32 | – | – | 12 ± 1.67
COc1ccc(NC(=O)c2cnc3c(n2)C(C)(C)C2=CCC4C(CCC5(C)C(C(C)O)CCC45)C2(C)C3)cc1 (stereo not drawn) [Compound 12m] | 30 to 60 | – | – | 20 ± 2.33 | 5.68 ± 1.9 | – | 20.3 ± 3.6
CC(O)C1CCC2C3CC=C4C(C)(C)c5nc(C(=O)NC6CCCCC6)cnc5CC4(C)C3CCC12C (stereo not drawn) [Compound 12o] | – | – | – | 15.1 ± 1.25 | – | – | 24.1 ± 2.34
